Measurements from the supplement of paper PMC10307832.

Legend:
Test in all cases: relative viability (nuclei count vs DMSO), 5 days (fraction); higher = more cells survive
[1] = compound: C1=CC=C(C(=C1)C2=CC=C(C=C2)C3=CSC4=C3C(=C(C(=O)N4)C#N)O)O + Cc1nc(NC(=O)N2CCC[C@H]2C(N)=O)sc1-c1ccnc(C(C)(C)C(F)(F)F)c1 [Alpelisib] (partner 2 µM)
Summary of the method: (§1)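 Five library-drug doses in √10 steps were combined with a fixed anchor-drug dose, or a single drug was given alone, by pin tool to lung cancer cell lines in 1536-well plates the day after seeding. Nuclei were stained and counted after 5 days. Relative viability is the nuclei count in treated wells over that in vehicle wells, taken as the median of duplicate plates.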

TGX 221 + OSI-027 = compound: CC1=CN2C(=O)C=C(N=C2C(=C1)C(C)NC3=CC=CC=C3)N4CCOCC4 [TGX 221] + COc1cccc2cc(-c3nc([C@H]4CC[C@H](C(=O)O)CC4)n4ncnc(N)c34)[nH]c12 [OSI-027] (partner 0.5 µM)
Summary of the method: as §1

[2] = compound: C1=CC=C(C(=C1)C2=CC=C(C=C2)C3=CSC4=C3C(=C(C(=O)N4)C#N)O)O + Cc1nc(Nc2ncc(C(=O)Nc3c(C)cccc3Cl)s2)cc(N2CCN(CCO)CC2)n1 [Dasatinib] (partner 0.075 µM)
Summary of the method: as §1

TGX 221 + Pemetrexed = compound: CC1=CN2C(=O)C=C(N=C2C(=C1)C(C)NC3=CC=CC=C3)N4CCOCC4 [TGX 221] + Nc1nc2[nH]cc(CCc3ccc(C(=O)N[C@@H](CCC(=O)O)C(=O)O)cc3)c2c(=O)[nH]1 [Pemetrexed] (partner 0.2 µM)
Summary of the method: as §1

Cell Line	relative viability ([1]; first compound 0.08 µM)	relative viability ([1]; first compound 0.253 µM)	relative viability ([1]; first compound 0.8 µM)	relative viability ([1]; first compound 2.53 µM)	relative viability ([1]; first compound 8 µM)	relative viability (TGX 221 + OSI-027; first compound 0.08 µM)	relative viability (TGX 221 + OSI-027; first compound 0.253 µM)	relative viability (TGX 221 + OSI-027; first compound 0.8 µM)	relative viability (TGX 221 + OSI-027; first compound 2.53 µM)	relative viability (TGX 221 + OSI-027; first compound 8 µM)	relative viability ([2]; first compound 0.08 µM)	relative viability ([2]; first compound 0.253 µM)	relative viability ([2]; first compound 0.8 µM)	relative viability ([2]; first compound 2.53 µM)	relative viability ([2]; first compound 8 µM)	relative viability (TGX 221 + Pemetrexed; first compound 0.08 µM)	relative viability (TGX 221 + Pemetrexed; first compound 0.253 µM)	relative viability (TGX 221 + Pemetrexed; first compound 0.8 µM)	relative viability (TGX 221 + Pemetrexed; first compound 2.53 µM)	relative viability (TGX 221 + Pemetrexed; first compound 8 µM)
NCI-H3122	0.795	0.909	0.89	0.844	0.902	0.874	0.929	1	0.864	0.963	1	0.715	0.91	0.829	0.721	0.198	0.203	0.201	0.206	0.207
PC-3 [JPC-3]	1.17	1.05	1.06	1.12	1.01	0.756	0.775	0.788	0.751	0.806	0.818	0.731	0.913	1.11	0.953	1.08	1.09	1.11	1.04	1
PC-14	0.761	1.17	0.853	0.981	0.71	0.707	0.791	0.908	1.05	0.654	0.244	0.261	0.272	0.27	0.239	0.135	0.125	0.134	0.145	0.118
RERF-LC-KJ	0.769	0.935	0.961	0.782	0.69	0.567	0.598	0.593	0.574	0.534	0.765	0.889	0.854	0.771	0.657	0.479	0.471	0.484	0.465	0.475
SK-LU-1	0.834	1.15	1.13	1.07	0.974	0.31	0.331	0.288	0.273	0.298	0.172	0.198	0.161	0.198	0.196	0.923	0.89	0.907	0.898	0.838
SK-MES-1	0.863	0.985	0.96	0.782	0.675	0.552	0.53	0.592	0.532	0.473	0.391	0.334	0.309	0.274	0.359	0.932	0.925	0.948	0.842	0.693
SW 1573	0.726	0.974	0.758	0.624	0.583	0.511	0.569	0.525	0.513	0.494	0.498	0.618	0.662	0.666	0.369	0.781	0.788	0.807	0.789	0.725
UMC-11	0.668	0.73	1.01	1.2	0.793	0.502	0.438	0.482	0.458	0.456	0.328	0.432	0.573	0.524	0.374	0.677	0.717	0.788	0.815	0.823
